tested on: glutathione S-transferase (Schistosoma japonicum); assay: Affinity towards recombinant Glutathione S-transferase (GST) Enzyme; NA indicates No affinity; call rule not given here

| IC50 | Compound |
| --- | --- |
| Not Active | O=C(O)CCCCCC(CS)CCCCC(=O)O (stereo not given) |
| Not Active | O=C(O)CC/C=C/C(CS)CCCCC(=O)O (stereo not given) |
| Not Active | O=C(O)CCCCC(CS)CCCCC(=O)O |
| Not Active | O=C(O)CCCCCCC(CS)CCCC(=O)O (stereo not given) |
| Not Active | O=C(O)CC/C=C/C(CO)CCCCC(=O)O (stereo not given) |

— ChEMBL document CHEMBL1131258, “Synthesis and glutathione S-transferase structure-affinity relationships of nonpeptide and peptidase-stable glutathione analogues” (J Med Chem, 1998)
